Measurements taken from PubChem BioAssay AID2060503 (Molecular Pharmacology Branch, DTP, NCI, 2025).

System: 817829-284-R-J1-PDC complex spheroids, viability
Assay: Anticancer human tumor 817829-284-R-J1-PDC patient-derived colon adenocarcinoma cell line growth inhibition [GQUAD]
Settings: for IC50: curve of first compound; for viability, T/C: stronger effect = lower value; active = viability on the fitted dose curve at most 10% of control; inactive = the rest
How it was run: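 Viability of tumor cells grown as complex spheroids with endothelial and stromal cells, exposed to drug combinations. Top concentration at or near clinical Cmax (else 10 microM), diluted in half-log increments.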

[1] = second compound 0.0316 µM, first compound 0.0316 µM
[2] = second compound 0.0316 µM, first compound 0.1 µM
[3] = second compound 0.0316 µM, first compound 0.316 µM
[4] = second compound 0.0316 µM, first compound 1 µM
[5] = second compound 0.0316 µM, first compound 3.16 µM
[6] = second compound 0.0316 µM, first compound 10 µM
[7] = second compound 0.1 µM, first compound 0.0316 µM
[8] = second compound 0.1 µM, first compound 0.1 µM
[9] = second compound 0.1 µM, first compound 0.316 µM
[10] = second compound 0.1 µM, first compound 1 µM
[11] = second compound 0.1 µM, first compound 3.16 µM
[12] = second compound 0.1 µM, first compound 10 µM
[13] = second compound 0.316 µM, first compound 0.0316 µM
[14] = second compound 0.316 µM, first compound 0.1 µM
[15] = second compound 0.316 µM, first compound 0.316 µM
[16] = second compound 0.316 µM, first compound 1 µM
[17] = second compound 0.316 µM, first compound 3.16 µM
[18] = second compound 0.316 µM, first compound 10 µM
[19] = second compound 1 µM, first compound 0.0316 µM
[20] = second compound 1 µM, first compound 0.1 µM
[21] = second compound 1 µM, first compound 0.316 µM
[22] = second compound 1 µM, first compound 1 µM
[23] = second compound 1 µM, first compound 3.16 µM
[24] = second compound 1 µM, first compound 10 µM
[25] = second compound 3.16 µM, first compound 0.0316 µM
[26] = second compound 3.16 µM, first compound 0.1 µM
[27] = second compound 3.16 µM, first compound 0.316 µM
[28] = second compound 3.16 µM, first compound 1 µM
[29] = second compound 3.16 µM, first compound 3.16 µM
[30] = second compound 3.16 µM, first compound 10 µM
[31] = second compound 10 µM, first compound 0.0316 µM
[32] = second compound 10 µM, first compound 0.1 µM
[33] = second compound 10 µM, first compound 0.316 µM
[34] = second compound 10 µM, first compound 1 µM
[35] = second compound 10 µM, first compound 3.16 µM
[36] = second compound 10 µM, first compound 10 µM
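Also: spheroids exposed to agents for 7 days before readout.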
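For viability, T/C in this document: percent viability relative to DMSO vehicle control taken as 100%.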

COc1ccc([C@@H](O)c2cc(-c3ncnc4cc(N5CCOCC5)ccc34)c(F)cc2Cl)nn1 + Cc1[nH]c2ccc(F)cc2c1-c1nc2c3cccnc3c3ncccc3c2[nH]1
inactive: viability, T/C [1] 110% | viability, T/C [2] 81.3% | viability, T/C [3] 103% | viability, T/C [4] 79.8% | viability, T/C [5] 87.4% | viability, T/C [6] 53.6% | viability, T/C [7] 92.1% | viability, T/C [8] 111% | viability, T/C [9] 93.4% | viability, T/C [10] 99.7% | viability, T/C [11] 84.1% | viability, T/C [12] 51.4% | viability, T/C [13] 82.2% | viability, T/C [14] 111% | viability, T/C [15] 115% | viability, T/C [16] 97.8% | viability, T/C [17] 81.5% | viability, T/C [18] 51.6% | viability, T/C [19] 96.5% | viability, T/C [20] 111% | viability, T/C [21] 132% | viability, T/C [22] 90% | viability, T/C [23] 72.6% | viability, T/C [24] 48.3% | viability, T/C [25] 102% | viability, T/C [26] 79% | viability, T/C [27] 103% | viability, T/C [28] 65.5% | viability, T/C [29] 45.1% | viability, T/C [30] 26% | viability, T/C [31] 41.2% | viability, T/C [32] 82.5% | viability, T/C [33] 45.6% | viability, T/C [34] 29.6% | viability, T/C [35] 33% | viability, T/C [36] 7.18%
2.26 µM: IC50 (second compound 3.16 µM)
9.78 µM: IC50 (second compound 1 µM)
0.337 µM: IC50 (second compound 10 µM)
> 10 µM: IC50 (second compound 0.0316 µM) | IC50 (second compound 0.1 µM) | IC50 (second compound 0.316 µM)

O=C(NO)c1cnc(N2CCN(S(=O)(=O)c3ccc4ccccc4c3)CC2)nc1 + Cc1cnc(CNC(=O)c2c(=O)c3ccc(N4CCCN(C)CC4)nc3n3c2sc2ccccc23)cn1
active: viability, T/C [3] 5.04% | viability, T/C [4] 0.12% | viability, T/C [5] 0.03% | viability, T/C [6] 0.07% | viability, T/C [9] 3.6% | viability, T/C [10] 0.1% | viability, T/C [11] 0.02% | viability, T/C [12] 0.06% | viability, T/C [15] 4.03% | viability, T/C [16] 0.05% | viability, T/C [17] 0.02% | viability, T/C [18] 0.06% | viability, T/C [21] 1.77% | viability, T/C [22] 0.04% | viability, T/C [23] 0.03% | viability, T/C [24] 0.07% | viability, T/C [26] 12.7% | viability, T/C [27] 0.09% | viability, T/C [28] 0.05% | viability, T/C [29] 0.06% | viability, T/C [30] 0.09% | viability, T/C [31] 0.07% | viability, T/C [32] 0.11% | viability, T/C [33] 0.13% | viability, T/C [34] 0.09% | viability, T/C [35] 0.14% | viability, T/C [36] 0.15%
< 0.0316 µM: IC50 (second compound 0.1 µM) | IC50 (second compound 0.316 µM) | IC50 (second compound 1 µM) | IC50 (second compound 3.16 µM) | IC50 (second compound 10 µM)
inactive: viability, T/C [1] 77.5% | viability, T/C [2] 16.4% | viability, T/C [7] 19.2% | viability, T/C [8] 21.4% | viability, T/C [13] 18.8% | viability, T/C [14] 18.1% | viability, T/C [19] 17.5% | viability, T/C [20] 16.4% | viability, T/C [25] 14.8%
0.0533 µM: IC50 (second compound 0.0316 µM)
